US20230293518A1 (Edgewise Therapeutics, Inc., priority 2020, published 2023)

How the values were obtained:
[1] = test system: embryos from zebrafish model of DMD; conditions: Li and Arner, PLoSONE, 2015; cited from earlier work
[2] = biological target: skeletal myofibrils (myosin ATPase); assay: Skeletal Myofibril ATPase Assay; assay type: biochemical
Outline: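 Skeletal myofibril ATPase activity was measured via PK-LDH coupling, following NADH loss at 340 nm every 1.5-2 min for 45 min in PIPES/CaCl2/EGTA pCa buffer, pH 7.0. Max−Min slopes were normalised to 1% DMSO vehicle (100%) and fit to a four-parameter logistic (bottom ≥0) for IC50.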

| Compound | IC50 ([2]; Table 4C) [µM] | further results |
| --- | --- | --- |
| Cc1ccc(S(=O)(=O)NCc2ccccc2)cc1 [BTS, N-benzyl-p-tolyl-sulfonamide] | – | protection of muscles from pathological muscle derangement [1]: protect muscles from pathological muscle derangement |
| CC(=O)Nc1ccc(-c2ccc(=O)n(CC(=O)NCc3ccccc3Cl)n2)cc1 [II-8, 2-(3-(4-acetamidophenyl)-6-oxopyridazin-1(6H)-yl)-N-(2-chlorobenzyl) acetamide] | – | IC50 ([2]; Table 4B): < 10 µM |
| O=C(Cn1nc(-c2ccc(Cl)cc2)ccc1=O)Nc1ccccc1Cl [IIIc-28, N-(2-chlorophenyl)-2-(3-(4-chlorophenyl)-6-oxopyridazin-1(6H)-yl)acetamide] | < 10 | – |
| COc1ccc(-c2ccc(=O)n(CC(=O)NC(C)CCc3ccccc3)n2)c(F)c1 (stereo not shown) [IIIb-36, 2-(3-(2-fluoro-4-methoxyphenyl)-6-oxopyridazin-1(6H)-yl)-N-(4-phenylbutan-2-yl)acetamide] | 10 to 100 | – |
